In patent US5296498A, “Guanidine compounds” (Adir et Compagnie, priority 1990, dated 1994):
Where a name gives a salt, the structure may show the parent alone.

Experiments:
5-HT1A receptors = molecular target: T1, 5-HT1A receptors (Homo sapiens, UniProt P08908); test: In vitro affinity test for 5-HT1A receptors; conditions: conventional binding technique, read-out: Ki with respect to 5-HT1A receptors
T1 sequence (P08908 1-422): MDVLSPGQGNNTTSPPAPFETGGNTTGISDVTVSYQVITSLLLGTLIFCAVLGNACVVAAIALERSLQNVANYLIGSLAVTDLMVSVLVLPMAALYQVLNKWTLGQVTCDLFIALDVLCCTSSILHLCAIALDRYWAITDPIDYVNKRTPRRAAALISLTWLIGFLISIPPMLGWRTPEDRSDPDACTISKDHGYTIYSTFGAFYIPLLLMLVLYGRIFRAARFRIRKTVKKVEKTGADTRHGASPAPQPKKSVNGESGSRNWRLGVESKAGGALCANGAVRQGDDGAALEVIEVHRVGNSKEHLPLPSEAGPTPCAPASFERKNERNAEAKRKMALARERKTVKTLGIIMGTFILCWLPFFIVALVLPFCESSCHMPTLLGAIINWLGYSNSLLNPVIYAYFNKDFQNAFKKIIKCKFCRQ
Experimental: (§1) EXAMPLE 8: In vitro affinity test for endazoline, α1 and α2 and 5-HT receptors
(§2) The in vitro affinity tests for endazoline receptors were carried out according to a technique described by A. Parini et al. (Biochem. and Biophys. Res. Comm. 147(3), 1055, 1987), and according to conventional binding techniques for the other receptors.

5 HT2 receptors = 5 HT2 receptors (Homo sapiens, UniProt P28223); test: In vitro affinity test for 5-HT2 receptors; conditions: conventional binding technique, read-out: Ki with respect to 5 HT2 receptors
Experimental: as §1, §2

5-HT1B receptors = 5-HT1B receptors (Rattus norvegicus, UniProt P28564); test: In vitro affinity test for 5-HT1B receptors; conditions: conventional binding technique, read-out: Ki with respect to 5-HT1B receptors
Experimental: as §1, §2

5-HT3 receptors = molecular target: T2, 5-HT3 receptors (Homo sapiens, UniProt P46098); test: In vitro affinity test for 5-HT3 receptors; conditions: conventional binding technique, read-out: Ki with respect to 5-HT3 receptors
T2 sequence (P46098 24-478): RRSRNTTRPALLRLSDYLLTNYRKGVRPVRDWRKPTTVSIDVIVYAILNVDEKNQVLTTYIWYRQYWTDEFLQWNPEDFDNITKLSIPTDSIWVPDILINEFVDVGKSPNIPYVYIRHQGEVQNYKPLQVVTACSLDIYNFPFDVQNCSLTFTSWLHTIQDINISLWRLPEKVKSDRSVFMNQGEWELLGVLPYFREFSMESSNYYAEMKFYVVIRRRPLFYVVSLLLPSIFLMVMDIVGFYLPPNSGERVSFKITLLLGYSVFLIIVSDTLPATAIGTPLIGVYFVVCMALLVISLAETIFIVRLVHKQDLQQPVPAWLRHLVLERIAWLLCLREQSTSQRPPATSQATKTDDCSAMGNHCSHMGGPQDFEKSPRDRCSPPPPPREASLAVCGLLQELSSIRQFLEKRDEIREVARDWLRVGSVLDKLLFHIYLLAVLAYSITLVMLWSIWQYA
Experimental: as §1, §2

Sequence of 5 HT2 receptors (P28223 whole entry): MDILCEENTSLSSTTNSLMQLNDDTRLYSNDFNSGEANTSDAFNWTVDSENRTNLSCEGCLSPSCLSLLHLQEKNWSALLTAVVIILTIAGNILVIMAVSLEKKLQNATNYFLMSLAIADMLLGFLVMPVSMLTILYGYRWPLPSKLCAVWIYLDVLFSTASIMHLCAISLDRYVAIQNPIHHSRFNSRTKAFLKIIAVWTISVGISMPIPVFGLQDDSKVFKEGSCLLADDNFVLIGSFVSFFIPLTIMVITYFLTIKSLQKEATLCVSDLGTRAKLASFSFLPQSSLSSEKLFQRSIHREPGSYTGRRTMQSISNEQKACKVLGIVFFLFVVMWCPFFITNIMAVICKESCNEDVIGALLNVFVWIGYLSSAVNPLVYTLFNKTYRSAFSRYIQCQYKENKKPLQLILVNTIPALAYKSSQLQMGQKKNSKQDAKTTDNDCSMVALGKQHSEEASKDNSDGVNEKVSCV
Sequence of 5-HT1B receptors (P28564 whole entry): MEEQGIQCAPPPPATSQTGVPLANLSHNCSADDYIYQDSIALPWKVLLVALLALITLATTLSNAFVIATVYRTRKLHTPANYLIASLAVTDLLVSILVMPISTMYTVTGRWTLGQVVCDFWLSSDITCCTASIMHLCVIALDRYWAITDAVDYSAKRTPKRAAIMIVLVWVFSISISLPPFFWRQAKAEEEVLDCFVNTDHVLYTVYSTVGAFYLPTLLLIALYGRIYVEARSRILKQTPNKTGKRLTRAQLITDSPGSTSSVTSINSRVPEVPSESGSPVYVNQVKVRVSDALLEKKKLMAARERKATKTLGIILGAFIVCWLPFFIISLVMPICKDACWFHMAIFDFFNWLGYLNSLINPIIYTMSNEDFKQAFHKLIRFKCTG

Ki (5-HT1A receptors): ~10 µM
Ki (5 HT2 receptors): ~20 µM
Ki (5-HT1B receptors): ~100 µM
Ki (5-HT3 receptors): ~2 µM
SMILES: N=C(N)NN=CC(C1CC1)C1CC1 [Example 2, (2,2-Dicyclopropylethylidene)aminoguanidine hydrochloride]
